{"source": "patent US9170257B2", "about": "(priority 2012, dated 2015)", "key": {"[1]": {"experiment": "Plasma, urine and bile levels of curcumin and THC 15 minutes post-infusion", "format": "in vivo, Beagle dogs", "details": "for Plasma level / concentration at 15 min: mean±SE; for concentration at 15 min / Kp: both sexes, dog, in vivo, 10 mg/kg; for concentration at 15 min: Beagle; for Kp: beagle", "description": "(§1) The results and analysis for the study are presented for intravenous infusion dosing of a total dose of 10 mg/kg infused over a period of either 2 or 8 hours. Plasma levels of curcumin and its metabolite, THC were measured at timed intervals post-dosing.\n(§2) Bioanalysis was performed on two sets of samples, one set that was treated with phosphoric acid and one set that was not treated with phosphoric acid. […] Values that were below the limit of quantification were assigned a value of 0.\nFifteen minutes following either the 2 hour or 8 hour infusion, blood, urine and bile samples were taken, prior to the dogs being necropsied and organs removed for the isolation of tissues. Multiple samples of tissue weighing approximately 1 gram were removed and snap frozen in the presence or absence of phosphoric acid (H3PO4). For all tissue samples, the levels of curcumin and THC were determined using a method developed by the Bioanalytical Department at Nucro-Technics. […] Values that were below the limit of quantification were assigned a value of 0. […] Tissue distribution data was analyzed using, unless stated, the data from 4 dogs and are presented as the mean±standard error (S.E.)."}, "[2]": {"experiment": "Bench stability in Phase 1 human plasma samples", "format": "in vitro ADME", "details": "human plasma with Na-phosphate, room temperature, a couple of hours", "experimental": "After the addition of 50 μl 5% H3PO4 to 950 ml plasma the pH was 4.4."}, "[3]": {"experiment": "Plasma pharmacokinetics of curcumin and THC during and after intravenous infusion of liposomal curcumin", "format": "in vivo, Beagle dogs", "description": "as §1\nFor the 2 hour infusion, blood samples were taken at predose and 0.25, 0.5, 1.5 and at 2 hours during infusion and at 15 minutes post-infusion. For the 8 hour infusion, blood samples were taken at predose and 0.25, 0.5, 1.5, […] and at 8 hours during infusion and at 15 minutes post-infusion.\nas §2\nPlasma concentration vs. time profiles were analyzed using (unless otherwise stated) the data from 4 dogs. Plasma profiles for the test articles are presented as the mean data±SE of 4 dogs. Average plasma concentrations were used to perform the PK analysis. Plasma concentration vs. time profiles were analyzed and the PK parameters estimated using WinNonlin Version 5.2.1 employing the intravenous infusion model with first order elimination. Unless stated otherwise, the plasma concentration-time profiles for the test articles are presented as the mean data±SE of 4 dogs."}, "[4]": {"details": "both sexes, Beagle, dog, in vivo, 10 mg/kg, 1.25 mg/kg/hr, mean±SE, read-out: [Plasma + PO4]"}, "[5]": {"details": "both sexes, Beagle, dog, in vivo, 10 mg/kg, 1.25 mg/kg/hr, mean±SE, read-out: [Plasma]"}, "[6]": {"details": "both sexes, Beagle, dog, in vivo, 10 mg/kg, 5 mg/kg/hr, mean±SE, read-out: [Plasma + PO4]"}, "[7]": {"details": "both sexes, Beagle, dog, in vivo, 10 mg/kg, 5 mg/kg/hr, mean±SE, read-out: [Plasma]"}}, "note": "Read-outs that look alike come from different tables or passages of the source.", "data": [{"smiles": "COc1cc(CCC(=O)CC(=O)CCc2ccc(O)c(OC)c2)ccc1O", "note": "[THC, tetrahydrocurcumin]", "values": [{"measurement": "Plasma level", "setting": "[1]; 15 min after 2 hour infusion, + H3PO4", "value": "1167 ± 379", "unit": "ng/mL"}, {"measurement": "Plasma level", "setting": "[1]; 15 min after 8 hour infusion, no H3PO4", "value": "20 ± 4^2 ng/mL"}, {"measurement": "concentration at 15 min", "setting": "[1]; 15 min after 2 hour infusion, + H3PO4, read-out: Bile level", "value": "391 ± 197", "unit": "ng/mL"}, {"measurement": "concentration at 15 min", "setting": "[1]; 15 min after 2 hour infusion, + H3PO4, read-out: Urine level", "value": "3590 ± 1080", "unit": "ng/mL"}, {"measurement": "concentration at 15 min", "setting": "[1]; 15 min after 2 hour infusion, no H3PO4, read-out: Bile level", "value": "187 ± 74", "unit": "ng/mL"}, {"measurement": "concentration at 15 min", "setting": "[1]; 15 min after 2 hour infusion, no H3PO4, read-out: Plasma level", "value": "38 ± 4", "unit": "ng/mL"}, {"measurement": "concentration at 15 min", "setting": "[1]; 15 min after 2 hour infusion, no H3PO4, read-out: Urine level", "value": "6420 ± 1450", "unit": "ng/mL"}, {"measurement": "concentration at 15 min", "setting": "[1]; 15 min after 8 hour infusion, + H3PO4, read-out: Bile level", "value": "168 ± 53", "unit": "ng/mL"}, {"measurement": "concentration at 15 min", "setting": "[1]; 15 min after 8 hour infusion, + H3PO4, read-out: Plasma level", "value": "142 ± 122", "unit": "ng/mL"}, {"measurement": "concentration at 15 min", "setting": "[1]; 15 min after 8 hour infusion, + H3PO4, read-out: Urine level", "value": "621 ± 206", "unit": "ng/mL"}, {"measurement": "concentration at 15 min", "setting": "[1]; 15 min after 8 hour infusion, no H3PO4, read-out: Bile level", "value": "84 ± 12", "unit": "ng/mL"}, {"measurement": "concentration at 15 min", "setting": "[1]; 15 min after 8 hour infusion, no H3PO4, read-out: Urine level", "value": "2450 ± 84", "unit": "ng/mL"}, {"measurement": "Kp", "setting": "[1]; higher infusion rate (5 mg/kg/hr), read-out: bile to plasma concentration ratio", "value": 1.2}, {"measurement": "Kp", "setting": "[1]; higher infusion rate (5 mg/kg/hr), read-out: urine to plasma concentration ratio", "value": 4.4}, {"measurement": "Kp", "setting": "[1]; low infusion rate (1.25 mg/kg/hr), read-out: bile to plasma concentration ratio", "value": 0.3}, {"measurement": "Kp", "setting": "[1]; low infusion rate (1.25 mg/kg/hr), read-out: urine to plasma concentration ratio", "value": 3.1}, {"measurement": "bench stability", "setting": "[2]", "value": "minimal"}, {"measurement": "Ke", "setting": "[3]; 2 hour i.v. infusion, total dose 10 mg/kg, fitted", "value": 1.4, "unit": "h⁻¹"}, {"measurement": "ratio of THC to curcumin based on AUC", "setting": "[3]; 2 hour infusion", "value": 9.6}, {"measurement": "ratio of THC to curcumin based on AUC", "setting": "[3]; 8 hour infusion", "value": 6.3}, {"measurement": "Plasma THC levels higher than curcumin", "setting": "[3]; at both infusion rates (2 and 8 hours)", "value": "6.3-9.6 fold"}, {"measurement": "concentration at 15 min", "setting": "[3]; [4]", "value": "59 ± 24", "unit": "ng/mL"}, {"measurement": "concentration at 15 min", "setting": "[3]; [5]", "value": "72 ± 15", "unit": "ng/mL"}, {"measurement": "concentration at 30 min", "setting": "[3]; [4]", "value": "121 ± 28", "unit": "ng/mL"}, {"measurement": "concentration at 30 min", "setting": "[3]; [5]", "value": "63 ± 15", "unit": "ng/mL"}, {"measurement": "concentration at 90 min", "setting": "[3]; [4]", "value": "293 ± 73", "unit": "ng/mL"}, {"measurement": "concentration at 90 min", "setting": "[3]; [5]", "value": "64 ± 14", "unit": "ng/mL"}, {"measurement": "concentration at 2 hr", "setting": "[3]; [4]", "value": "226 ± 64", "unit": "ng/mL"}, {"measurement": "concentration at 2 hr", "setting": "[3]; [5]", "value": "68 ± 11", "unit": "ng/mL"}, {"measurement": "concentration at 4 hr", "setting": "[3]; [4]", "value": "193 ± 127", "unit": "ng/mL"}, {"measurement": "concentration at 4 hr", "setting": "[3]; [5]", "value": "77 ± 8", "unit": "ng/mL"}, {"measurement": "concentration at 6 hr", "setting": "[3]; [4]", "value": "64 ± 10", "unit": "ng/mL"}, {"measurement": "concentration at 6 hr", "setting": "[3]; [5]", "value": 0, "unit": "ng/mL"}, {"measurement": "concentration at 8 hr", "setting": "[3]; [4]", "value": "62 ± 26", "unit": "ng/mL"}, {"measurement": "concentration at 8 hr", "setting": "[3]; [5]", "value": "67 ± 29", "unit": "ng/mL"}, {"measurement": "concentration at 15 min", "setting": "[3]; [6]", "value": "284 ± 89", "unit": "ng/mL"}, {"measurement": "concentration at 15 min", "setting": "[3]; [7]", "value": "483 ± 50", "unit": "ng/mL"}, {"measurement": "concentration at 30 min", "setting": "[3]; [6]", "value": "1120 ± 318", "unit": "ng/mL"}, {"measurement": "concentration at 30 min", "setting": "[3]; [7]", "value": "566 ± 77", "unit": "ng/mL"}, {"measurement": "concentration at 90 min", "setting": "[3]; [6]", "value": "2350 ± 441", "unit": "ng/mL"}, {"measurement": "concentration at 90 min", "setting": "[3]; [7]", "value": "891 ± 238", "unit": "ng/mL"}, {"measurement": "concentration at 2 hr", "setting": "[3]; [7]", "value": "454 ± 79", "unit": "ng/mL"}, {"measurement": "AUC", "setting": "[3]; both sexes, Beagle, dog, in vivo, iv, 10 mg/kg, 2 hr infusion + phosphate, AUC to 15 min post-infusion, read-out: AUC", "value": 3800, "unit": "ng·h/mL"}, {"measurement": "AUC", "setting": "[3]; both sexes, Beagle, dog, in vivo, iv, 10 mg/kg, 8 hr infusion + Phosphate, AUC to 15 min post-infusion, read-out: AUC", "value": 1170, "unit": "ng·h/mL"}, {"measurement": "AUC", "setting": "[3]; both sexes, Beagle, dog, in vivo, iv, 10 mg/kg, 8 hr infusion, 10 mg/kg, plasma without phosphoric acid, AUC to 15 min post-infusion, read-out: AUC", "value": 411, "unit": "ng·h/mL"}, {"measurement": "Cmax", "setting": "[3]; both sexes, Beagle, dog, in vivo, iv, 10 mg/kg, 8 hr infusion, plasma without phosphoric acid, observed, read-out: Cmax", "value": 77, "unit": "ng/mL"}, {"measurement": "concentration at 2 h", "setting": "[3]; both sexes, beagle, dog, in vivo, 10 mg/kg, 5 mg/kg/hr, 2 hr (end of infusion), mean±SE, read-out: [Plasma + PO4]", "value": "2980 ± 852", "unit": "ng/mL"}, {"measurement": "AUC", "setting": "[3]; both sexes, beagle, dog, in vivo, iv, 10 mg/kg, 2 hour i.v. infusion, total dose 10 mg/kg, fitted, first-order elimination infusion model, read-out: AUC (estimated PK parameter)", "value": 5180, "unit": "ng·h/mL"}, {"measurement": "Cmax", "setting": "[3]; both sexes, beagle, dog, in vivo, iv, 10 mg/kg, 2 hour i.v. infusion, total dose 10 mg/kg, fitted, first-order elimination infusion model, read-out: Cmax (estimated PK parameter)", "value": 2430, "unit": "ng/mL"}, {"measurement": "AUC", "setting": "[3]; both sexes, beagle, dog, in vivo, iv, 10 mg/kg, 2 hour infusion, + phosphoric acid, read-out: calculated AUC (observed)", "value": 3800, "unit": "ng·h/mL"}, {"measurement": "Cmax", "setting": "[3]; both sexes, beagle, dog, in vivo, iv, 10 mg/kg, 2 hr infusion + phosphate, observed, read-out: Cmax", "value": 2980, "unit": "ng/mL"}, {"measurement": "AUC", "setting": "[3]; both sexes, beagle, dog, in vivo, iv, 10 mg/kg, 2 hr infusion, 10 mg/kg, plasma without phosphoric acid, AUC to 15 min post-infusion, read-out: AUC", "value": 1320, "unit": "ng·h/mL"}, {"measurement": "Cmax", "setting": "[3]; both sexes, beagle, dog, in vivo, iv, 10 mg/kg, 2 hr infusion, plasma without phosphoric acid, observed, read-out: Cmax", "value": 891, "unit": "ng/mL"}, {"measurement": "Cmax", "setting": "[3]; both sexes, beagle, dog, in vivo, iv, 10 mg/kg, 8 hr infusion + Phosphate, observed, read-out: Cmax", "value": 293, "unit": "ng/mL"}, {"measurement": "MRT", "setting": "[3]; both sexes, beagle, dog, in vivo, iv, 2 hour i.v. infusion, total dose 10 mg/kg, fitted, read-out: MRT", "value": 42, "unit": "min"}, {"measurement": "half-life", "setting": "[3]; both sexes, beagle, dog, in vivo, iv, 2 hour i.v. infusion, total dose 10 mg/kg, fitted, read-out: t1/2(e) (converted)", "value": 30, "unit": "min"}, {"measurement": "ratio of plasma THC to curcumin", "setting": "[3]; two infusion rates", "value": "6.3-9.6"}]}]}
